In article PMC8060913, “The Calcium-Activated Chloride Channel TMEM16A is Inhibitied by Liquiritigenin” (Frontiers in Pharmacology, 2021):
pIC50: −log10 of the molar value. Like-named read-outs stand apart in the source and are kept apart here.

Assays:
Type in all cases: cell-based
[1] = target: T1, human TMEM16A (hTMEM16A, anoctamin 1) (Homo sapiens, UniProt Q5XXA6); assay: whole-cell patch-clamp in transfected HEK293T cells, % inhibition at […], +[…] mV; settings: HEK-293T
T1 construct: gene ANO1; untagged complete CDS
T1 sequence (Q5XXA6 1-986): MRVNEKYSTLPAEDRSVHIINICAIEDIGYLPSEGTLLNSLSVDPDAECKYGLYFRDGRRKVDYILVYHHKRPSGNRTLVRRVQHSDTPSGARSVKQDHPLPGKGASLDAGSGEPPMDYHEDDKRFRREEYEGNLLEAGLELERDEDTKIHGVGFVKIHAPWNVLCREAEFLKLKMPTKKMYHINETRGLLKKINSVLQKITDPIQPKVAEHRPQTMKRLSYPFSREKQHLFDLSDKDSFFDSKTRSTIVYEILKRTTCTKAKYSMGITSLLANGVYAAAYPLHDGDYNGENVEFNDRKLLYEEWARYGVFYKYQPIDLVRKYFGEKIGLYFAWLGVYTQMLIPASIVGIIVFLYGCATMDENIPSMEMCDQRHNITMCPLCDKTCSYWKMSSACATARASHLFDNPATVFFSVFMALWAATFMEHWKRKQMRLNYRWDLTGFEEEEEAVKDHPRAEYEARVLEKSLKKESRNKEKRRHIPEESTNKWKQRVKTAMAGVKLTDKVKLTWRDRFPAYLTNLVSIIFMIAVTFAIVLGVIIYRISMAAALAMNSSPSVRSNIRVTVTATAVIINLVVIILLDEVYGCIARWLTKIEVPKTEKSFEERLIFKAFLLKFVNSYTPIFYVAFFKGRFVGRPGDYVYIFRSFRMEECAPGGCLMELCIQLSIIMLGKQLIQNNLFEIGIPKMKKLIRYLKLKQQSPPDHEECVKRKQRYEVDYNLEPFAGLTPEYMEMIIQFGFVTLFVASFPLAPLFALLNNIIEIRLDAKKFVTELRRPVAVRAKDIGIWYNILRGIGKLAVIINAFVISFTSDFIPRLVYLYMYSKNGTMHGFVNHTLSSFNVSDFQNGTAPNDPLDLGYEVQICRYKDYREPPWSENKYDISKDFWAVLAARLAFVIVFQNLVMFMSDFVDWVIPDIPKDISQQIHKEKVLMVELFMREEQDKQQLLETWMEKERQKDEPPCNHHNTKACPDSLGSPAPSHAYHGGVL

[2] = target: T2, mouse TMEM16A (mTMEM16A, anoctamin 1) (Mus musculus, UniProt Q8BHY3); assay: as above; settings: HEK-293T
T2 construct: gene Ano1
T2 sequence (Q8BHY3 1-960): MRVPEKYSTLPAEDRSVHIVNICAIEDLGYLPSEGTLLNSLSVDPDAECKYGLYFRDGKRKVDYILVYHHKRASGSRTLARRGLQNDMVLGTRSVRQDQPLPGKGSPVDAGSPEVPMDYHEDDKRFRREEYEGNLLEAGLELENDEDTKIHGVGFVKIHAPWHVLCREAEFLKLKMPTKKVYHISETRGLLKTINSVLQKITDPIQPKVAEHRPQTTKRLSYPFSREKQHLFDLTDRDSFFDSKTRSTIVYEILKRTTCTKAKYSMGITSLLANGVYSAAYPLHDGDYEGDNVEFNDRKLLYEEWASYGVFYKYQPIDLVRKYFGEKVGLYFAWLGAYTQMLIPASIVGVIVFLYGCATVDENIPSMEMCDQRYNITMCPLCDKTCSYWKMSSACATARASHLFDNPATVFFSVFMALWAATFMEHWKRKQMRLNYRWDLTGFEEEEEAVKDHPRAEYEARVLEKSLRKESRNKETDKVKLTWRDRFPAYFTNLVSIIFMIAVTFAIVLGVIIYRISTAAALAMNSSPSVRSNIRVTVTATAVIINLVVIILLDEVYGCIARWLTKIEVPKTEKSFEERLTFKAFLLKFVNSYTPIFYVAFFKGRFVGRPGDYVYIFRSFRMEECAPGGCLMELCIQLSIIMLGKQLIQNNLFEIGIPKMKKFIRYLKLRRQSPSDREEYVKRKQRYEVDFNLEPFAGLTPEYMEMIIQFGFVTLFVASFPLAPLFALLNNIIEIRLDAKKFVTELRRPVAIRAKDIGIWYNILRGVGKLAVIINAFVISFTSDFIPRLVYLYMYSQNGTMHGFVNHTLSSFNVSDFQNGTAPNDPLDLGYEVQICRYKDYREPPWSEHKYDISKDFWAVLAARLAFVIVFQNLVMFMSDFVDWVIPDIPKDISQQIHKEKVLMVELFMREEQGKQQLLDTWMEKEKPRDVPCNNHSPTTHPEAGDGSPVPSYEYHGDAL

[3] = target: T1, human TMEM16A (hTMEM16A, anoctamin 1); assay: whole-cell patch-clamp in transfected HEK293T cells, +[…] mV
[4] = target: T2, mouse TMEM16A (mTMEM16A, anoctamin 1); assay: as above

`C[C@]12CC[C@@H]3c4ccc(O)cc4CC[C@H]3[C@@H]1C[C@@H](O)[C@@H]2O` [E3, estriol] showed an inhibition at 100 µM [1] of 43.5% and an inhibition at 100 µM [2] of 56.8%.
Molecule `O=C1C[C@@H](c2ccc(O)cc2)Oc2cc(O)ccc21` [liquiritigenin] has a pIC50 [3] of 4.89 and a pIC50 [4] of 4.67.
`O=C1c2ccc(O)cc2OCC1c1ccc(O)cc1` (stereo not drawn) [dihydrodaidzein] gave a pIC50 ([3]; read-out: IC50) of 3.60 and a pIC50 ([4]; read-out: IC50) of 3.75.
